Measurements from article PMC10563230, “Unveiling poly(rC)-binding protein 2 as the target protein for curcusone C against prostate cancer: mechanism validation through click chemistry-activity based proteomics profiling approach” (BMC Cancer, 2023).

Key:
[1] = tested on: human prostate carcinoma PC-3 cells; assay: CCK-8 cytotoxic activity assay, PC-3; assay type: cell-based; details: CCK-8, 48 h
Protocol: (§1) Human prostate carcinoma PC-3 cells and human proximal tubular HK-2 cells purchased from Chinese National Collection of Authenticated Cell Cultures were cultured in RPMI 1640 medium containing FBS (10%, Gibco, CA, USA) and Penicillin-Streptomycin (1%, Gibco, CA, USA). The cells were cultured at a concentration of 5% CO2 and a temperature of 37 ℃, and the medium was changed every two days.
(§2) CCK-8 assay was used to evaluate the proliferation and cytotoxicity of Curcusone C and its derivatives. Cells of 100 µL with a concentration of 5000 cells/mL to 8000 cells/mL were inoculated in 96-well plates for culturing 24 h, and the blank well was added with equal volume medium. After cell adhesion, 10 µL Curcusone C solution or its derivatives were added to each well of the experimental groups except the blank well to the final concentration of drug was 1 mM, […] respectively, and 10 µL DMSO (drug solvent) was added to the control well. The liquid was discarded 48 h later, and 100 µL medium and 10 µL CCK-8 reagent (Beyotime, Shanghai, China) were added to each well. After incubation for 0.5 to 1 h, the absorbance valued at 450 nm was measured and the cell inhibition rate or survival rate was calculated. Cell inhibition rate= […].

[2] = tested on: human proximal tubular HK-2 cells; assay: CCK-8 cytotoxic activity assay, HK-2 normal cells; assay type: cell-based; details: HK-2, 48 h, CCK-8, 48 h
Protocol: as §1, §2

PCBP2 protein = PCBP2 protein (Homo sapiens, UniProt Q15366); assay: SPR binding to immobilized PCBP2 (CM5 chip); details: analyte 31.25–500 µM
Chain of PCBP2 protein (Q15366 whole entry): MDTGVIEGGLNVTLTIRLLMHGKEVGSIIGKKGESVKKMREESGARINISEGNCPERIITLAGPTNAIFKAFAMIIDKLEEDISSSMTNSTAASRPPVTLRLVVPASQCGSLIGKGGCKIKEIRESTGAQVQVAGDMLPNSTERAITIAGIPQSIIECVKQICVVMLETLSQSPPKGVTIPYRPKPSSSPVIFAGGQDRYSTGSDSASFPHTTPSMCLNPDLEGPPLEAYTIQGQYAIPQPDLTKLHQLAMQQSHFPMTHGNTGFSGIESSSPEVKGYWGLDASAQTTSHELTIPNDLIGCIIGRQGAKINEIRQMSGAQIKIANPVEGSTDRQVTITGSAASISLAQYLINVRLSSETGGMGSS
Protocol: The PCBP2 protein was first immobilized on the CM5 microarray using […], and then the analyte was run using a multi-cycle method. Briefly, small molecules were diluted to different concentrations with Running Buffer, and injected into channel Fc1-Fc2 at a flow rate of 30 µl/min. The association period was 60 s, and then dissociated for 90 s. The association and dissociation processed in the Running Buffer.

[3] = tested on: PC-3 subcutaneously transplanted tumor; assay: PC-3 subcutaneously transplanted tumor model in nude mice; assay type: in vivo, Balb/C nude mice; details: for tumor weight: last day of administration, control group 2885.5 ± 432.0 mg
Protocol: (§3) PC-3 cells in logarithmic growth phase were collected and the total number of cells required was calculated. Cells were re-suspended in a suitable volume of PBS and added to matrigel (PBS: matrigel = 1:1(v/v)) at a concentration of 5 × 10^6 cells/mL for subcutaneous inoculation on the right side of Balb/C nude mice. On day 0, 0.1 mL 5 × 10^6 cells/mL cell suspension (PBS: matrigel = 1:1(v/v)) was subcutaneously inoculated on the right neck and back of each nude mouse except the mice of normal group, to establish PC-3 subcutaneously transplanted tumor model. On day 8 after cell inoculation, the tumor grew to an average volume of 140.3 mm^3. The groups were randomly divided into normal group (Normal), control group (Control), methotrexate group (MTX 4.8 mg/kg), low dose group (C 5 mg/kg), medium dose group (C 10 mg/kg) and high dose group (C 20 mg/kg). Except for 3 mice in the normal group, 6 mice in the other groups were administered twice a week via tail vein (BIW). After 2 weeks of dosing, the dose was changed to once a day (QD). After 2 days of QD administration, tail vein injection was changed to intraperitoneal administration, and QD administration was continued for 5 days. Pharmacodynamic activity was evaluated based on tumor inhibition rate (TGITV) and tolerance was evaluated based on animal weight change and death. At the end of the experiment, all the animals were bled under isoflurane anesthesia and the serum was extracted. The heart, liver, spleen, lung and kidney of each nude mouse were collected and fixed in 4% paraformaldehyde or quick-frozen in liquid nitrogen and stored at -80 ℃ for tissue protein extraction.
(§4) Tissue samples were embedded, sectioned, dewaxed, stained, dehydrated and transparent, and sealed with neutral gum. After drying in a ventilated place, observing and recording under a microscope, the sections were stored at room temperature.
Mouse tumor tissues were fixed with 4% PFA and washed with PBS, and TUNEL staining was performed with TUNEL apoptosis detection kit according to manufacturer’s instructions. Cell nucleus were stained with DAPI, slides were rinsed and imaged with fluorescence microscopy, and finally apoptosis was analyzed with image analyzer.

[4] = Tolerance and organ toxicity in tumor-bearing nude mice (body weight, HE staining); assay type: in vivo
Protocol: as §3, §4

PCBP2 [5] = assay: Western blot of PCBP2 in PC-3 cells; assay type: cell-based, human; details: different concentrations
Protocol: (§5) The culture medium containing PC-3 cells was discarded, lysis buffer was added, and the cells were collected with a scraper. The sample is then transferred to a centrifuge tube and the cells are fully lysed. Centrifuge the tube at 12,000 g and 4 ℃ for 10 min. After taking the supernatant, mix with the protein: protein loading buffer (v/v) = 5:1 ratio, and boil at 95 ℃ for 10 min to fully denaturate the protein. BCA protein concentration assay kit (Beyotime, China) was used to quantify the protein of experimental samples. Equal amounts of protein (30 µg) were loaded onto 7.5-12.5% SDS-PAGE gel. After adding the sample, the target protein was separated at 140 V constant pressure and was transferred under the condition of 250 mA constant current and the highest voltage. The transferred PVDF membrane (Thermo Fisher Scientific, MA, USA) was sealed in 5% skim milk (BIOFRox, Germany) for 2 h. The membrane was incubated in the antibody diluent of the corresponding protein at 4 ℃ overnight in a shaker and washed with TBST (Gibco, USA) for three times. Then it was placed in secondary antibody diluent for incubating 1.5 h at 4 ℃ in a shaker and washed again for three times. Finally, appropriate amount of ECL luminescent solution was taken to infiltrate PVDF membrane for development, and the strip was exposed and recorded.

[6] = tested on: Bax, Bcl-2, caspase-3 and PARP proteins in PC-3 cells; assay: Western blot of mitochondrial apoptosis pathway proteins in PC-3 cells; assay type: cell-based, human; details: increasing concentration
Protocol: as §5

PCBP2 [7] = assay: DARTS (pronase digestion of PCBP2 in PC-3 protein extract); assay type: binding, human; details: 100 µM
Protocol: PC-3 cells protein was extracted, and the protein concentration was adjusted to 5 mg/mL and was packed into 99 µL/tube. Then, 10 mM and 5 mM Curcusone C solution of 1 µL was added to protein mixture of 99 µL and gently shaken at room temperature for 1 h. After the compounds were completely incubated, the samples were divided into one part every 20 µL, and 2 µL pronase solution with a certain concentration was added. The control group was added with 2 µL TNC buffer and incubated at room temperature for 30 min to ensure the same digestion time in each group. Digestion was terminated with 20X protease inhibitor complex and incubated on ice for 10 min. Finally, 6 µL 5X protein loading buffer was added to each sample and boiled at 100 ℃ for 10 min to fully denaturate the protein. The samples were centrifuged at 1100 g and 4 ℃ for 1 min and were performed western blot.

[8] = tested on: PCBP2, FHL3, TGF-β1, phosphorylated Smad2 and phosphorylated Smad7; assay: Immunohistochemistry of tumor tissues of nude mice; assay type: in vivo, Balb/C nude mice
Protocol: Paraffin sections underwent successively dewaxing to water, antigen repair, blocking of endogenous peroxidase, serum blocking, primary antibody incubation, secondary antibody reaction, DAB color development, counterstaining of nuclei, dehydration and sealing, image acquisition and analysis, and microscopic examination.

Compound: C=C1CC[C@H](C(=C)C)C2C=C(C)C(=O)C3=C(C(=O)[C@](C)(Cl)C3)C12 (stereo partly shown) [Derivative C-1]
- IC50 ([1]; PC-3, 48 h): 3.74 ± 0.4 µM

Compound: C=C(COc1ccc([N+](=O)[O-])cc1)[C@@H](CCC(=O)COc1ccc([N+](=O)[O-])cc1)c1cc2c(c(=O)c(C)c1)C[C@@](C)(O)C2=O [Derivative C-12]
- IC50 [1]: > 20 µM

Compound: C#CCCCC(=O)O[C@]1(C)CC2=C(C1=O)C1C(=C)CC[C@H](C(=C)C)C1C=C(C)C2=O (stereo partly shown) [Positive probes]
- IC50 ([1]; PC-3, 48 h): 7.34 ± 0.2 µM

Compound: C=C(COC(=O)/C=C/C=C/C)[C@H]1CCC(O)(CCl)C2C3=C(C[C@@](C)(O)C3=O)C(=O)C(C)=CC21 (stereo partly shown) [Derivative C-6]
- IC50 ([1]; PC-3, 48 h): 1.81 ± 0.18 µM

Compound: C=C(COC(=O)CC(=O)OC)[C@H]1CCC(O)(CCl)C2C3=C(C[C@@](C)(O)C3=O)C(=O)C(C)=CC21 (stereo partly shown) [Derivative C-9]
- IC50 ([1]; PC-3, 48 h): 5.97 ± 1.16 µM

Compound: C=C(C)[C@H]1CCC(O)(CCl)C2C3=C(C[C@@](C)(O)C3=O)C(=O)C(C)=CC21 (stereo partly shown) [Derivative C-2]
- IC50 ([1]; PC-3, 48 h): 6.4 ± 0.38 µM

Compound: C=C1CC[C@H](C(=C)C)[C@H]2C=C(C)C(=O)C3=C(C(=O)[C@](C)(O)C3)[C@H]12 [Curcusone C]
- IC50 ([1]; PC-3, 48 h): ~3.24 µM
- IC50 [2]: > 20 µM
- Kd (PCBP2 protein): 3150 µM
- TUNEL apoptotic signal in tumor tissue ([3]; 5 mg/kg): no apoptotic cell signal
- tumor inhibition rate ([3]; 5 mg/kg): 18%
- tumor weight ([3]; 5 mg/kg): 2356.7 ± 445.7 mg
- TUNEL apoptotic signal in tumor tissue ([3]; 10 mg/kg): red marker signal
- tumor inhibition rate ([3]; 10 mg/kg): 33%
- tumor weight ([3]; 10 mg/kg): 1925.6 ± 242.1 mg
- HE staining of tumor tissue ([3]; 20 mg/kg): nuclear pyknosis and lysis
- TUNEL apoptotic signal in tumor tissue ([3]; 20 mg/kg): most obvious apoptotic signal
- tumor inhibition rate ([3]; 20 mg/kg): about 39%
- tumor weight ([3]; 20 mg/kg): 1759.6 ± 448.7 mg
- HE staining of lung tissue ([4]; 20 mg/kg): no interstitial thickening of lung tissue
- body weight of nude mice ([4]; 20 mg/kg): weight loss due to intolerance at the initial stage of drug administration
- HE staining of renal tissue ([4]; after administration of Curcusone C): no obvious abnormality
- HE staining of heart, liver, spleen, lung and kidney ([4]; compared with the normal group): no significant changes
- relative content of PCBP2 in PC-3 cells (PCBP2 [5]): decreased with the increase of drug concentration
- level of Bcl-2 in PC-3 cells [6]: decreased gradually
- relative expression levels of Bax, cleaved caspase-3 and cleaved PARP in PC-3 cells [6]: increased gradually
- amount of enzymolysis by pronase of PCBP2 (PCBP2 [7]): lower than that of control group
- changes of TGF-β1, P-Smad2 and P-smad7 proteins in tumor tissues ([8]; IHC): downward trend
- content of FHL3 protein in tumor tissues ([8]; IHC, 20 mg/kg): higher than that in Control group
- expression of PCBP2 protein in tumor tissues ([8]; IHC, 5, 10, 20 mg/kg): decreased with the increase of drug concentration

Compound: C=C(C)[C@@H](CCC(=O)CN(CC)CC)c1cc2c(c(=O)c(C)c1)C[C@@](C)(O)C2=O [Derivative C-11]
- IC50 ([1]; PC-3, 48 h): > 20 µM

Compound: C=C(COC(C)=O)[C@H]1CCC(O)(CCl)C2C3=C(C[C@@](C)(O)C3=O)C(=O)C(C)=CC21 (stereo partly shown) [Derivative C-8]
- IC50 ([1]; PC-3, 48 h): 9.49 ± 0.17 µM

Compound: C=C(CCl)[C@H]1CCC(O)(CCl)C2C3=C(C[C@@](C)(O)C3=O)C(=O)C(C)=CC21 (stereo partly shown) [Derivative C-13]
- IC50 [1]: 2.96 ± 0.37 µM

Compound: C=C(CO)[C@H]1CCC(O)(CCl)C2C3=C(C[C@@](C)(O)C3=O)C(=O)C(C)=CC21 (stereo partly shown) [Derivative C-7]
- IC50 ([1]; PC-3, 48 h): 16.3 ± 3.25 µM

Compound: C=C(C)[C@H]1CCC(O)(CI)C2C3=C(C[C@@](C)(O)C3=O)C(=O)C(C)=CC21 (stereo partly shown) [Derivative C-3]
- IC50 ([1]; PC-3, 48 h): 10.3 ± 0.58 µM

Compound: C=C(C=O)[C@H]1CCC(O)(CCl)C2C3=C(C[C@@](C)(O)C3=O)C(=O)C(C)=CC21 (stereo partly shown) [Derivative C-4]
- IC50 ([1]; PC-3, 48 h): 2.35 ± 0.37 µM

Compound: CN(Cc1cnc2nc(N)nc(N)c2n1)c1ccc(C(=O)N[C@@H](CCC(=O)O)C(=O)O)cc1 [Methotrexate, reference compound]
- IC50 ([1]; PC-3, 48 h): 0.89 ± 0.22 µM
- IC50 [2]: ~3.21 µM
- HE staining of tumor tissue ([3]; 4.8 mg/kg): nuclear pyknosis and lysis
- TUNEL apoptotic signal in tumor tissue ([3]; 4.8 mg/kg): most obvious apoptotic signal
- tumor inhibition rate ([3]; 4.8 mg/kg): 48%
- tumor weight ([3]; 4.8 mg/kg): 1503.4 ± 243.0 mg
- HE staining of kidney (glomerulus in the renal cortex) ([4]; 4.8 mg/kg): severe pyknosis
- HE staining of lung tissue ([4]; 4.8 mg/kg): significant pulmonary interstitial thickening and pneumonic pathological manifestations

Compound: C=C(C)[C@@H](CCC(=O)COC(C)=O)c1cc2c(c(=O)c(C)c1)C[C@@](C)(O)C2=O [Derivative C-10]
- IC50 ([1]; PC-3, 48 h): > 20 µM

Compound: C=C(C)C(=O)OCC(=C)[C@H]1CCC(O)(CCl)C2C3=C(C[C@@](C)(O)C3=O)C(=O)C(C)=CC21 (stereo partly shown) [Derivative C-5]
- IC50 ([1]; PC-3, 48 h): 2.05 ± 0.96 µM
